Values of other authors in PubChem BioAssay AID1259409 (Chemical Carcinogenesis Research Information System (CCRIS), 2018).
Where “and” joins values, the source holds several entries; their conditions need not be identical. Equal values may be shown once.

Test system: rodent chemically induced tumor inhibition, incidence and multiplicity
Assay: CCRIS tumor inhibitor studies
Conditions: Promoter: NONE USED

Row | SMILES | tumour outcome (control, treated, inhibition, significance) (Carcinogen: 1,2-DIMETHYLHYDRAZINE, 540-73-8, Dose [Inhibitor]: 0, 500 MG/KG BW IN CORN OIL 5 D/WK FOR 20 WK BEGINNING 2 HR POST FIRST CARCINOGEN DOSE (STUDY DURATION: 18 MO), Route [Inhibitor]: GAVAGE, Species: RAT, Strain/Sex: WISTAR/MALE, Target Tissue: Type of Lesion: INTESTINE: TUMOR, Dose [Carcinogen]: 20 MG/KG BW 1/WK FOR 20 WK) | tumour outcome (control, treated, inhibition, significance) (Carcinogen: 1,2-DIMETHYLHYDRAZINE, 540-73-8, Dose [Inhibitor]: 0, 500 MG/KG BW IN CORN OIL 5 D/WK FOR 20 WK BEGINNING 2 HR POST FIRST CARCINOGEN DOSE (STUDY DURATION: 18 MO), Route [Inhibitor]: GAVAGE, Species: RAT, Strain/Sex: WISTAR/MALE, Target Tissue: Type of Lesion: ZYMBAL GLAND: TUMOR, Dose [Carcinogen]: 20 MG/KG BW 1/WK FOR 20 WK) | tumour outcome (control, treated, inhibition, significance) (Carcinogen: 1,2-DIMETHYLHYDRAZINE, 540-73-8, Dose [Inhibitor]: 0, 500 MG/KG BW IN CORN OIL 5 D/WK FOR 20 WK BEGINNING 15 D PRIOR TO CARCINOGEN TREATMENT (STUDY DURATION: 18 MO), Route [Inhibitor]: GAVAGE, Species: RAT, Strain/Sex: WISTAR/MALE, Target Tissue: Type of Lesion: INTESTINE: TUMOR, Dose [Carcinogen]: 20 MG/KG BW 1/WK FOR 20 WK) | tumour outcome (control, treated, inhibition, significance) (Carcinogen: 1,2-DIMETHYLHYDRAZINE, 540-73-8, Dose [Inhibitor]: 0, 500 MG/KG BW IN CORN OIL 5 D/WK FOR 20 WK BEGINNING 15 D PRIOR TO CARCINOGEN TREATMENT (STUDY DURATION: 18 MO), Route [Inhibitor]: GAVAGE, Species: RAT, Strain/Sex: WISTAR/MALE, Target Tissue: Type of Lesion: ZYMBAL GLAND: TUMOR, Dose [Carcinogen]: 20 MG/KG BW 1/WK FOR 20 WK) | tumour outcome (control, treated, inhibition, significance) (Carcinogen: 1,2-DIMETHYLHYDRAZINE, 540-73-8, Dose [Inhibitor]: 5 MG/G IN DIET FOR 17 WK BEGINNING 8 D PRIOR TO CARCINOGEN (STUDY DURATION: 36 WK), Route [Inhibitor]: ORAL, Species: MOUSE, Strain/Sex: C-F1/FEMALE, Target Tissue: Type of Lesion: LARGE INTESTINE: TUMOR, Dose [Carcinogen]: 0.7 MG IN 0.2 ML EDTA SOLUTION 1/WK FOR 16 WK) | tumour outcome (control, treated, inhibition, significance) (Carcinogen: 7,12-DIMETHYLBENZ[A]ANTHRACENE, 57-97-6, Dose [Inhibitor]: 0.03 NMOL/G DIET DAILY FOR 17 WK STARTING 1 WK PRIOR TO CARCINOGEN TREATMENT AND CONTINUING THROUGH THE END OF THE STUDY, Route [Inhibitor]: ORAL, Species: RAT, Strain/Sex: SPRAGUE-DAWLEY/FEMALE, Target Tissue: Type of Lesion: MAMMARY GLAND: TUMOR, Dose [Carcinogen]: 12 MG IN 1 ML OLIVE OIL ONCE) | tumour outcome (control, treated, inhibition, significance) (Carcinogen: 7,12-DIMETHYLBENZ[A]ANTHRACENE, 57-97-6, Dose [Inhibitor]: 100 MG IN 1 ML CARBOWAX 400 SOLUTION ONCE 24 HR BEFORE CARCINOGEN TREATMENT FOLLOWED BY 16 WK OBSERVATION PERIOD (STUDY, Route [Inhibitor]: GAVAGE, Species: RAT, Strain/Sex: SPRAGUE-DAWLEY/FEMALE, Target Tissue: Type of Lesion: MAMMARY GLAND: TUMOR, Dose [Carcinogen]: 12 MG IN 1 ML OLIVE OIL ONCE) | tumour outcome (control, treated, inhibition, significance) (Carcinogen: BENZO[A]PYENE, 50-32-8, Dose [Inhibitor]: 0.03 MMOL/G DIET DAILY FOR 6 WK CONCURRENT WITH CARCINOGEN TREATMENT FOLLOWED BY 14 WK ON STANDARD DIET (STUDY DURATION:, Route [Inhibitor]: ORAL, Species: MOUSE, Strain/Sex: ICR/FEMALE, Target Tissue: Type of Lesion: FORESTOMACH: NEOPLASM, Dose [Carcinogen]: 0.3 MG/G IN DIET DAILY FOR 6 WK) | tumour outcome (control, treated, inhibition, significance) (Carcinogen: BENZO[A]PYENE, 50-32-8, Dose [Inhibitor]: 0.03 MMOL/G DIET DAILY FOR 25 D STARTING 7 D PRIOR TO FIRST CARCINOGEN DOSE AND THEN PLACED ON STANDARD DIET THROUGH THE, Route [Inhibitor]: ORAL, Species: MOUSE, Strain/Sex: STRAIN-A/FEMALE, Target Tissue: Type of Lesion: LUNG: ADENOMA, Dose [Carcinogen]: 3 MG IN 0.5 ML SESAME OIL ADMINISTERED 7 AND 21 D AFTER START OF AGENT) | tumour outcome (control, treated, inhibition, significance) (Carcinogen: BRACKEN FERN, Dose [Inhibitor]: 5 MG/G DIET, DAILY FOR 12 MO SIMULTANEOUS WITH CARCINOGEN (STUDY DURATION: 12 MO), Route [Inhibitor]: ORAL, Species: RAT, Strain/Sex: ALBINO/?, Target Tissue: Type of Lesion: INTESTINE: TUMOR, Dose [Carcinogen]: 0.33 G IN DIET DAILY FOR 12 MO) | tumour outcome (control, treated, inhibition, significance) (Carcinogen: BRACKEN FERN, Dose [Inhibitor]: 5 MG/G DIET, DAILY FOR 12 MO SIMULTANEOUS WITH CARCINOGEN (STUDY DURATION: 12 MO), Route [Inhibitor]: ORAL, Species: RAT, Strain/Sex: ALBINO/?, Target Tissue: Type of Lesion: URINARY BLADDER: TUMOR, Dose [Carcinogen]: 0.33 G IN DIET, DAILY FOR 12 MO) | tumour outcome (control, treated, inhibition, significance) (Carcinogen: TRANS-5-AMINO-3-[2-(5-NITRO-2-FURYL)VINYL]-1,2,4-OXADIAZOLE;SQL8506, 28754-68-9, Carcinogen: TRANS-5-AMINO-3-[2-(5-NITRO-2-FURYL)VINYL]-1,2,4-OXADIAZOLE;SQL8506, 28754-68-9, Dose [Inhibitor]: 1% IN DIET DAILY FOR 11 D BEGINNING 3 D BEFORE, DURING AND 3 D AFTER EACH OF 3 CARCINOGEN TREATMENTS (STUDY DURATION: LI, Route [Inhibitor]: ORAL, Species: MOUSE, Strain/Sex: CD-1/FEMALE, Target Tissue: Type of Lesion: HEMATOPOIETIC SYSTEM: MYELOID LEUKEMIA, Dose [Carcinogen]: 1 G/KG 2/D FOR 5 D EVERY 4 WK FOR 3 COURSES OF TREATMENT) | tumour outcome (control, treated, inhibition, significance) (Carcinogen: TRANS-5-AMINO-3-[2-(5-NITRO-2-FURYL)VINYL]-1,2,4-OXADIAZOLE;SQL8506, 28754-68-9, Carcinogen: TRANS-5-AMINO-3-[2-(5-NITRO-2-FURYL)VINYL]-1,2,4-OXADIAZOLE;SQL8506, 28754-68-9, Dose [Inhibitor]: 1% IN DIET DAILY FOR 11 D BEGINNING 3 D BEFORE, DURING AND 3 D AFTER EACH OF 3 CARCINOGEN TREATMENTS (STUDY DURATION: LI, Route [Inhibitor]: ORAL, Species: MOUSE, Strain/Sex: CD-1/FEMALE, Target Tissue: Type of Lesion: LYMPHOID TISSUE: NONTHYMIC LYMPHOMA, Dose [Carcinogen]: 1 G/KG 2/D FOR 5 D EVERY 4 WK FOR 3 COURSES OF TREATMENT) | tumour outcome (control, treated, inhibition, significance) (Carcinogen: TRANS-5-AMINO-3-[2-(5-NITRO-2-FURYL)VINYL]-1,2,4-OXADIAZOLE;SQL8506, 28754-68-9, Carcinogen: TRANS-5-AMINO-3-[2-(5-NITRO-2-FURYL)VINYL]-1,2,4-OXADIAZOLE;SQL8506, 28754-68-9, Dose [Inhibitor]: 1% IN DIET DAILY FOR 11 D BEGINNING 3 D BEFORE, DURING AND 3 D AFTER TREATMENT EACH OF 3 CARCINOGEN TREATMENTS (STUDY DU, Route [Inhibitor]: ORAL, Species: MOUSE, Strain/Sex: CD-1/FEMALE, Target Tissue: Type of Lesion: STOMACH: SQUAMOUS CARCINOMA, Dose [Carcinogen]: 1 G/KG 2/D FOR 5 D EVERY 4 WK FOR 3 COURSES OF TREATMENT) | tumour outcome (control, treated, inhibition, significance) (Carcinogen: URETHANE, 51-79-6, Dose [Inhibitor]: 0, 500 MG/KG IN CORN OIL AT 24 HR AND 1 HR PRIOR TO CARCINOGEN DOSE (STUDY DURATION: 4 MO), Route [Inhibitor]: GAVAGE, Species: MOUSE, Strain/Sex: BALB/MALE, FEMALE, Target Tissue: Type of Lesion: LUNG: TUMOR, Dose [Carcinogen]: 1 G/KG IN 0.9% SALINE ONCE) | tumour outcome (control, treated, inhibition, significance) (Carcinogen: URETHANE, 51-79-6, Dose [Inhibitor]: 0, 500 MG/KG IN CORN OIL FOR 4 D BEGINNING 4 D POST CARCINOGEN DOSE (STUDY DURATION: 4 MO), Route [Inhibitor]: GAVAGE, Species: MOUSE, Strain/Sex: BALB/MALE, FEMALE, Target Tissue: Type of Lesion: LUNG: TUMOR, Dose [Carcinogen]: 1 G/KG IN 0.9% SALINE ONCE) | tumour outcome (control, treated, inhibition, significance) (Carcinogen: BENZO[A]PYRENE, 50-32-8, Dose [Inhibitor]: 0.03 MMOL/G OF DIET DAILY STARTING 7 D BEFORE AND CONTINUING THROUGH 3 D AFTER CARCINOGEN TREATMENT FOLLOWED BY OBSERVAT, Route [Inhibitor]: ORAL, Species: MOUSE, Strain/Sex: ICR/FEMALE, Target Tissue: Type of Lesion: FORESTOMACH: NEOPLASM, Dose [Carcinogen]: 1 MG IN 0.2 ML CORN OIL 2/WK FOR 4 WK) | tumour outcome (control, treated, inhibition, significance) (Carcinogen: BENZO[A]PYRENE, 50-32-8, Dose [Inhibitor]: 0.06 MMOL/G OF DIET DAILY STARTING 7 D BEFORE AND CONTINUING THROUGH 3 D AFTER CARCINOGEN TREATMENT FOLLOWED BY OBSERVAT, Route [Inhibitor]: ORAL, Species: MOUSE, Strain/Sex: ICR/FEMALE, Target Tissue: Type of Lesion: FORESTOMACH: NEOPLASM, Dose [Carcinogen]: 1 MG IN 0.2 ML CORN OIL 2/WK FOR 4 WK)
1 | CCN(CC)C(=S)SSC(=S)N(CC)CC | 100%, 58%, 42%, not calculated | 52%, 4%, 92%, not calculated | 100%, 0%, 100%, not calculated | 68%, 0%, 100%, not calculated | 14/14 (100%), 0/20 (0%), 100%, not calculated | 61%, 22%, 64%, p<0.05 and 79%, 8%, 90%, p<0.001 | 59%, 11%, 81%, p<0.01 | 40%, 0%, 100%, not calculated | 12/12 (100%), 12/12 (100%), 0%, not significant | 30/30 (100%), 12/16 (75%), 25%, p<0.01 | 22/30 (73%), 10/16 (62%), 15%, not significant | 7/137 (5%), 0/34 (0%), 100%, not calculated | 8/137 (6%), 0/34 (0%), 100%, not calculated | 60/137 (44%), 12/34 (35%), 20%, not calculated | 100%, 63%, 37%, not significant | 100%, 94%, 6%, not significant |  | 
2 | O=C(O)/C=C/c1ccccc1O |  |  |  |  |  |  |  |  |  |  |  |  |  |  |  |  | 100%, 100%, 0%, not significant | 100%, 84%, 16%, not significant and 97%, 89%, 8%, not significant and 100%, 82%, 18%, not significant
